Test results as given in patent US7173063B1, “Topoisomerase poisons for the treatment of proliferative disorders” (Fred Hutchinson Cancer Research Center, priority 2000, dated 2007).

Target: T1, Topo II (Saccharomyces cerevisiae, UniProt P06786)
T1 construct: Strains are wild-type (wt) or constitutively overexpressing Topo II (TOP2oe); endogenous in cells; host or cells: S. cerevisiae A364a background, chromosomal TOP2 with its promoter replaced by the GPD promoter (TOP2oe)
T1 sequence (P06786 1-1428): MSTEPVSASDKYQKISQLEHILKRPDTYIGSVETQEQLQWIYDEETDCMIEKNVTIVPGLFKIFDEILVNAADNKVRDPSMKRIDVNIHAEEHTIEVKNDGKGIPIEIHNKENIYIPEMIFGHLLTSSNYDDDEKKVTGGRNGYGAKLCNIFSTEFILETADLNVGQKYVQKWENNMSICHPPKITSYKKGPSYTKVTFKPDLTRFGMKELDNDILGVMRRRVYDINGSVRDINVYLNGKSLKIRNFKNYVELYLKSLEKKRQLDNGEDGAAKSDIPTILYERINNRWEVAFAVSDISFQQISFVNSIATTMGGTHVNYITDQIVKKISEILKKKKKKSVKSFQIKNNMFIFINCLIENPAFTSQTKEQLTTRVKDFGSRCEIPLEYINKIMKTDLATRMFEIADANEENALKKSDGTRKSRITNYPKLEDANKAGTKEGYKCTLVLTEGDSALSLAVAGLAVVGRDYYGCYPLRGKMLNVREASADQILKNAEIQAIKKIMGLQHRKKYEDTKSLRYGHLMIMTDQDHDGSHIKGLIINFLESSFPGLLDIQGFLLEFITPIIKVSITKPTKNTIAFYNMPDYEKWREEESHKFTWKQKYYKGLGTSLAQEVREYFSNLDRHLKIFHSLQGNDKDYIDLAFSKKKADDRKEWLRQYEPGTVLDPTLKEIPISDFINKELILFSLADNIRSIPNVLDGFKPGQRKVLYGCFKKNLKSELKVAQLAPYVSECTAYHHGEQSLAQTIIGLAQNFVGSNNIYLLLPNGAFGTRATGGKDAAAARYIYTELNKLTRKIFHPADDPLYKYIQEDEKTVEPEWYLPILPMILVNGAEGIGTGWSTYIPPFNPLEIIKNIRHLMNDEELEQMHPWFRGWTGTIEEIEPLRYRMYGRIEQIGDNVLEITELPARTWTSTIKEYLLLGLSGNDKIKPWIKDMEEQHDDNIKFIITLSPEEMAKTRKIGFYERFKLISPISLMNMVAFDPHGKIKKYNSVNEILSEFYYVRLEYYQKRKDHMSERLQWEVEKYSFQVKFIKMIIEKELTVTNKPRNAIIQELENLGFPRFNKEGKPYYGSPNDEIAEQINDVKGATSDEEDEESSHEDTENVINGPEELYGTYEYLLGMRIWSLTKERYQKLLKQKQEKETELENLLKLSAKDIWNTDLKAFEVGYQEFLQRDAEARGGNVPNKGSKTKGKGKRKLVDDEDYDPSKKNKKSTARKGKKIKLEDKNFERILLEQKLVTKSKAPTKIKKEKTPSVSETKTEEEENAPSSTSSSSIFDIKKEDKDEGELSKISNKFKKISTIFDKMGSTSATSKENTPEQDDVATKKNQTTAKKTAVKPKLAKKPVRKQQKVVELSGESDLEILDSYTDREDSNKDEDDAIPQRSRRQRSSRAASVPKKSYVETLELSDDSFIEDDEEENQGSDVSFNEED
Test: Yeast toxicity in strain overexpressing Topo II (TOP2oe)
Assay type: cell-based
Settings: TOP2oe vs wild-type strain
Text: The strains are derived from the A364a genetic background, with the exception of BY4705, which is derived from the S288C background. Gene disruptions were generated by PCR fragment directed replacement (Baudin, et al., Nucleic Acids Research 21: 3329–30 (1993), Guldener, et al., Nucleic Acids Research 24: 2519–24 (1996)). Yeast overexpressing topoisomerase II was constructed by a PCR fragment directed promoter replacement of the topoisomerase II promoter with the yeast GPD promoter flanked upstream by the URA3 marker. All strains (except BY4705) bear the pleitropic drug sensitizing mutations erg6, pdr1, and pdr3 (Balzi, et al., Journal of Bioenergetics & Biomembranes 27: 71–6 (1995), Delaveau, et al, Molecular & General Genetics 244: 501–11 (1994), Gaber, et al., Molecular & Cellular Biology 9: 3447–56 (1989), Saunders, et al., Canadian Journal of Genetics & Cytology, 24: 493–503 (1982). Subik, et al, Current Genetics 10: 665–70 (1986)). The haploid yeast strain BY4705 (Brachmann, et al., Yeast 14: 115–32 (1998)) was used in the experiments described in FIG. 5. Plasmids expressing yeast or human topoisomerase I genes under the GAL promoter (Knab, et al., Journal of Biological Chemistry 268: 22322–30 (1993). Knab, et al., Journal of Biological Chemistry 270: 6141–8 (1995)) were transformed into BY4705 using standard procedures.
Yeast toxicity assays were performed essentially as follows: Exponentially growing cultures of the appropriate strains were diluted in synthetic complete media to a concentration of 7.4×10^4 cells/mL, and aliquots (135 μL) were transferred to each well of clear flat-bottomed 96 well plates. Compounds were added in duplicate or triplicate as 15 μL of the appropriate dilution in 5% DMSO. A 15 μL portion of 5% DMSO was added to control wells. Assay plates were incubated at 30° C. for approximately seven generations growth in solvent control wells (as monitored by OD660, typically 21–24 hours), then the OD660 of the cultures was measured in a microplate reader (Bio-Tek). […]

Structure (SMILES) | effect of overexpression of Topo II on toxicity
CC(=O)[C@]1(O)Cc2c(O)c3c(c(O)c2[C@@H](O[C@H]2C[C@H](N)[C@H](O)[C@H](C)O2)C1)C(=O)c1ccccc1C3=O [idarubicin, reference compound] | large increase
O=c1c(Cl)c(Cl)cnn1CCCl [compound IIa] | Neither compound shows a large increase in toxicity
O=C(CCl)Nc1ccc(C(=O)N/N=C/c2ccc(Cl)cc2)cc1 [compound Ia] | Neither compound shows a large increase in toxicity
